Structures are written as SMILES.

For assay [1], the target named is G protein-coupled receptor kinase 6 (Homo sapiens) (UniProt P43250). Briefly: Selectivity interaction (Kinase panel (Z-LYTE Assay)) EUB0001632a GRK6. The settings on record: at 10 µM.
Assay [2] addresses Serine/threonine-protein kinase PAK 2 (Homo sapiens) (UniProt Q13177). In words: Selectivity interaction (KinomeScan (DiscoverX)) EUB0000655a PAK2. The settings on record: at 10 µM.
In assay [3] the target is T1, Dual specificity mitogen-activated protein kinase kinase 6 (Homo sapiens) (UniProt P52564).
T1 sequence (whole entry): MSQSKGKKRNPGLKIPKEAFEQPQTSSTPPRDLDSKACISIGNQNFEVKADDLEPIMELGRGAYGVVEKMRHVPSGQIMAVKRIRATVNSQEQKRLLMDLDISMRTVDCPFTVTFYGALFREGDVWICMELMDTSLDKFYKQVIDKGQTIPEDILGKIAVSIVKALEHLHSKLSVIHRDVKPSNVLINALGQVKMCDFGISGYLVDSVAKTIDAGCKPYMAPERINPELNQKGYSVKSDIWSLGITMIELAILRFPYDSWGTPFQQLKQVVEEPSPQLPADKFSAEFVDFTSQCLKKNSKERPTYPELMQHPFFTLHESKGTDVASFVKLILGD
The settings on record: at 10 µM.

Assay [4] concerns the target Epithelial discoidin domain-containing receptor 1 (Homo sapiens) (UniProt Q08345). Briefly: Selectivity interaction (KinomeScan (DiscoverX)) EUB0000699a DDR1. The settings on record: at 10 µM.
The target in assay [5] is Serine/threonine-protein kinase 16 (Homo sapiens, UniProt O75716). Briefly: Selectivity interaction (KinomeScan (DiscoverX)) EUB0001049a STK16. The settings on record: at 1 µM.
Serine/threonine-protein kinase 16, sequence (O75716 whole entry): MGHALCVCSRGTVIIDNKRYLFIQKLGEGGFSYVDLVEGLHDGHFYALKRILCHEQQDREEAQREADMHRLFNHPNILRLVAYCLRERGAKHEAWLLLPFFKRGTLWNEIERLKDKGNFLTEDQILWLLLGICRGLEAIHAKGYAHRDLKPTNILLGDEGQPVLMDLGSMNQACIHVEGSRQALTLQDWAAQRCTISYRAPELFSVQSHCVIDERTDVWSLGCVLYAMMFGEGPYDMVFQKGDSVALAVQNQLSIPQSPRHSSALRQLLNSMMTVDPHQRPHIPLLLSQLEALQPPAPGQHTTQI
The target of assay [6] is T2, Dual specificity tyrosine-phosphorylation-regulated kinase 2 (Homo sapiens) (UniProt Q92630).
T2 sequence (whole entry): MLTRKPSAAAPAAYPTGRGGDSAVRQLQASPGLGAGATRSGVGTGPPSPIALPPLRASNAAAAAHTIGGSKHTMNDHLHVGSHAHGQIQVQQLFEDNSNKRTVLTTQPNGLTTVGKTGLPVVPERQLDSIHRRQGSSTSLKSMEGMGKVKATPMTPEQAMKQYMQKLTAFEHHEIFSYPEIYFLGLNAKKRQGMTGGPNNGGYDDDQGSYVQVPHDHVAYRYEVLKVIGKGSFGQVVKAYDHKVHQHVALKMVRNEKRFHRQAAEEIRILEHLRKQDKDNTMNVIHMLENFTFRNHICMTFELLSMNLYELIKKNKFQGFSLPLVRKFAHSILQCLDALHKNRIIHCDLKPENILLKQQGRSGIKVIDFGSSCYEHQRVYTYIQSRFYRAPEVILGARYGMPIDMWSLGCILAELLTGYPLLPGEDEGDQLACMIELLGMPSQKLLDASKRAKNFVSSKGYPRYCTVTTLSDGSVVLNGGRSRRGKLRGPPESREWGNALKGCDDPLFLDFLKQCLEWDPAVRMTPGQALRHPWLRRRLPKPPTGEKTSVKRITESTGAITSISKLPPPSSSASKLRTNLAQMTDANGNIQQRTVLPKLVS
In words: Selectivity interaction (KinomeScan (DiscoverX)) EUB0000092b DYRK2. The following applies: at 10 µM.

Assay [7] has as its target T3, Dual specificity mitogen-activated protein kinase kinase 4 (Homo sapiens) (UniProt P45985).
T3 sequence (whole entry): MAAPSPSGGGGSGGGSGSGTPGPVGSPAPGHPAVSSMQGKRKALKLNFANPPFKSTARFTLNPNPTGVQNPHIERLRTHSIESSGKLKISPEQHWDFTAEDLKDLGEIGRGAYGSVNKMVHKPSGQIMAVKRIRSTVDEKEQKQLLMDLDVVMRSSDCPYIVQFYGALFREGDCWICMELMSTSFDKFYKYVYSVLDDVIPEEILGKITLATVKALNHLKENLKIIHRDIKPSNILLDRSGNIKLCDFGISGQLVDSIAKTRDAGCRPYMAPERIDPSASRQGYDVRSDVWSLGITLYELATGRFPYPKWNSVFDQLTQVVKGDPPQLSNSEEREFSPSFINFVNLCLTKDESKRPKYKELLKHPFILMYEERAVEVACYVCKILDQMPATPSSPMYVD
Briefly: Selectivity interaction (KinomeScan (DiscoverX)) EUB0000618a MAP2K4. The settings on record: at 10 µM.

Assay [8] addresses T4, Serine/threonine-protein kinase DCLK2 (Homo sapiens) (UniProt Q8N568).
T4 sequence (whole entry): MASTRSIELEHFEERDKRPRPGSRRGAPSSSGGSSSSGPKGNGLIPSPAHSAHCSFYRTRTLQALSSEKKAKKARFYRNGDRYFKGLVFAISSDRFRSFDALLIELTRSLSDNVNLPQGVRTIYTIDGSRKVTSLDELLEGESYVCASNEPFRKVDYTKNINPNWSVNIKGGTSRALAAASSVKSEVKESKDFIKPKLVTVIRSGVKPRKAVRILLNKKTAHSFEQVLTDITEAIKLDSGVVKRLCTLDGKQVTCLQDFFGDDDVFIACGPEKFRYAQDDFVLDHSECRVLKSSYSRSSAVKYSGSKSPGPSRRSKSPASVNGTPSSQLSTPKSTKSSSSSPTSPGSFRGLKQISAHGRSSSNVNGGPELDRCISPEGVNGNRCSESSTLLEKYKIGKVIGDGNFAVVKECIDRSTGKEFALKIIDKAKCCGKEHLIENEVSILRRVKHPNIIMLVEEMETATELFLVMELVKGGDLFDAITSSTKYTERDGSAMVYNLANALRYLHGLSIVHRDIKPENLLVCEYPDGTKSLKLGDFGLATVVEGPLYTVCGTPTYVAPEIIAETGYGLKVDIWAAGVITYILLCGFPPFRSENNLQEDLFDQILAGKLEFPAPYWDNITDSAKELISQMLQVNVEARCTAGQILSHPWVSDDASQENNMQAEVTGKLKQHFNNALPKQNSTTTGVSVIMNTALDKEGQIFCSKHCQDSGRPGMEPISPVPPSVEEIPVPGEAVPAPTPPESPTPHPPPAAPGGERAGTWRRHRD
In words: Selectivity interaction (Upstate Kinase Profiler service (Millipore)) EUB0000056c DCLK2. The settings on record: at 1 µM.

Epithelial discoidin domain-containing receptor 1 (Homo sapiens), sequence (Q08345 whole entry, the tested form may be a part): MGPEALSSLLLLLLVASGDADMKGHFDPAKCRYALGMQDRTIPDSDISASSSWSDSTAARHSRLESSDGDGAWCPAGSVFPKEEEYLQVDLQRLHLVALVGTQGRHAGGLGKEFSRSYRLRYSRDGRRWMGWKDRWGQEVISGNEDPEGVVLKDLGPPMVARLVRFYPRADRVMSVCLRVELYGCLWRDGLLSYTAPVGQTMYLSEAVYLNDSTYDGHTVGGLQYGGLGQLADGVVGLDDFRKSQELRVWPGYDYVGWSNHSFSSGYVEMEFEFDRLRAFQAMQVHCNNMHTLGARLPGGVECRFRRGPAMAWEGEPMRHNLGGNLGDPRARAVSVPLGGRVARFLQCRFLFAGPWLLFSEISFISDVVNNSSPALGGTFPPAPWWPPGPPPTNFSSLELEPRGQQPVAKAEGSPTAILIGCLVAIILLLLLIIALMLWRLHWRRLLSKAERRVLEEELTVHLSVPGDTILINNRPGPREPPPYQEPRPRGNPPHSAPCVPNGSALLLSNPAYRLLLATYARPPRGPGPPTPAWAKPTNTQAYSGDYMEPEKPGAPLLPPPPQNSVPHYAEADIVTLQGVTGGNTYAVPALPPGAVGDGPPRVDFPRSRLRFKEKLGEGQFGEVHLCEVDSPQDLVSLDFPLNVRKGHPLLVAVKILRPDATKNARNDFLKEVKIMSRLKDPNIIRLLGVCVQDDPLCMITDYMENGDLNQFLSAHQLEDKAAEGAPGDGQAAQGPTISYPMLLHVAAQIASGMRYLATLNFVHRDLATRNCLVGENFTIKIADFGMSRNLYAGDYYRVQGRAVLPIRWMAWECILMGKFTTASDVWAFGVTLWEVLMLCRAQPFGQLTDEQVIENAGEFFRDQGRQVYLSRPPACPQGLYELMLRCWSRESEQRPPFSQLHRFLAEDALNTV
Serine/threonine-protein kinase PAK 2 (Homo sapiens), sequence (Q13177 whole entry): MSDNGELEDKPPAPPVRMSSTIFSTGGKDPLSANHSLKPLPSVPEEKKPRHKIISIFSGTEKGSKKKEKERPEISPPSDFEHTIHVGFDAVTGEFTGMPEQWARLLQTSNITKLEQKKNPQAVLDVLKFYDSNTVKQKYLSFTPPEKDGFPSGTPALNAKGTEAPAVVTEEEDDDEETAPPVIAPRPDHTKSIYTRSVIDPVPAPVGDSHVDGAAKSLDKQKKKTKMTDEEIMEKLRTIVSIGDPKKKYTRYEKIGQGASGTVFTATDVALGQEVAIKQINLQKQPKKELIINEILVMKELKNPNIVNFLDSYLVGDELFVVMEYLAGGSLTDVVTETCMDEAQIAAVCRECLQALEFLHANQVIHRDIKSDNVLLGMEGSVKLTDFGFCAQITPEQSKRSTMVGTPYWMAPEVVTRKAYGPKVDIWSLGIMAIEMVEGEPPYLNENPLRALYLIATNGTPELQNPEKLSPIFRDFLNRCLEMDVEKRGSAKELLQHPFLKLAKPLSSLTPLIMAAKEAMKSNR
G protein-coupled receptor kinase 6 (Homo sapiens), sequence (P43250 whole entry, looked up): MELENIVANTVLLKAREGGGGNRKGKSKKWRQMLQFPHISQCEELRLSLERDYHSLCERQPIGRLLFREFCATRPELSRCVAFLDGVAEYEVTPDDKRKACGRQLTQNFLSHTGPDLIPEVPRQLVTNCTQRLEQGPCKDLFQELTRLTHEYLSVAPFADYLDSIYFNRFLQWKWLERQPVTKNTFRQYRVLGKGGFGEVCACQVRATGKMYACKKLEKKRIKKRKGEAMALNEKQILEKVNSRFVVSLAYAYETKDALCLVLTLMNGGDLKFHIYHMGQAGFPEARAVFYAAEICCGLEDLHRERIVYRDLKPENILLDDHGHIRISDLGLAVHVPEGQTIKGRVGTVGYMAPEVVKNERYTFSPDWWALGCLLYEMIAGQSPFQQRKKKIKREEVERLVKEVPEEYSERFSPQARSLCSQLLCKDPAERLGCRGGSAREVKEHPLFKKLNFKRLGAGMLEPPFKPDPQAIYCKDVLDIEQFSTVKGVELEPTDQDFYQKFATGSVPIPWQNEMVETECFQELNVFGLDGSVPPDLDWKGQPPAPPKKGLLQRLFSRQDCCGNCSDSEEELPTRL

`Cn1cc(-n2cnc3c(NCc4nc5cc(Cl)c(Cl)cc5[nH]4)nc(N4CCOCC4)nc32)cn1`: the % of control in assay [1] was -1.29%.

With `CN(C)CCOc1ccc(-c2nc(-c3ccncc3)c(-c3ccc4c(c3)CC/C4=N\O)[nH]2)cc1`, the % of control in assay [2] is 85%.

For the compound `CCN(CC)CCCCNc1ncc2cc(-c3cc(OC)cc(OC)c3)c(NC(=O)NC(C)(C)C)nc2n1`, the % of control stood at 100% in assay [3] and 1.1% in assay [4].

For `COc1cc(Nc2nc(C)cc(-c3cnn4nc(OC)ccc34)n2)cc(C(F)(F)F)c1`, the % of control in assay [5] is 81%.

As to `CCC(=O)N1CCN(c2ccc(-n3c(=O)ccc4cnc5ccc(-c6cnc7ccccc7c6)cc5c43)cc2C(F)(F)F)CC1`, in assay [6], the % of control is 86%.

With `O[C@H]1CC[C@H](Nc2ncc3nc(Nc4c(F)cc(F)cc4F)n([C@H]4CCOC4)c3n2)CC1`, in assay [7], the % of control came to 27%.

As to `Cc1ccc(-c2ccc3c(ccc4sc5c(c43)NC[C@@H](C)NC5=O)n2)cn1`, in assay [8], the % of inhibition is -1%.

Source of the values: ChEMBL document CHEMBL5465560, “Selectivity Literature for EUbOPEN Chemogenomic Library” (2024).
